Values after ≈ are worked out from the molar mass of the structure shown.
Test system: HeLa
Test: Cytotoxicity against human HeLa cells
Type: functional, cell-based

CO[C@H]1C/C=C/c2nc(co2)-c2nc(co2)-c2nc(co2)[C@@H](OC)[C@@H](C)C(=O)/C=C/C[C@H](O)CC(=O)O[C@@H](C[C@H](OC)[C@@H](C)CC[C@@H](O)[C@@H](C)[C@H](O)[C@H](C)/C=C/N(C)C=O)[C@@H]1C [30,32-DIHYDROXYMYCALOLIDE A]
IC50: 2.6 ng/mL (≈ 2.99 nM)

From ChEMBL document CHEMBL1150605, “Isolation of a new mycalolide from the marine sponge Mycale izuensis” (J Nat Prod, 2002)
